# Measured values from patent US11802127B2, “3,4-dihydro-2,7-naphthyridine-1,6(2H,7H)-diones as MEK inhibitors” (Pfizer Inc., priority 2021, dated 2023).
# Assays:
# [1] = biological target: T1, P-gp (MDR1) (Homo sapiens, UniProt P08183); assay: Efflux ratio in MDR1 transfected LLC-PK1 cells; type: in vitro ADME; conditions: pig, Papp(B−A)/Papp(A−B)
# T1 construct: expressed in transfected cells; host or cells: LLC-PK1 (porcine kidney) cells transfected with MDR1
# In short: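 LLC-PK1 cells transfected with MDR1, test article at 1 μM (1% organic), transport measured A→B and B→A over 2 h at 37° C. Monolayer integrity checked with lucifer yellow, compound quantified by LC-MS/MS. Efflux ratio = Papp(B−A)/Papp(A−B).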
# [2] = biological target: T2, BCRP (hBCRP) (Homo sapiens, UniProt Q9UNQ0); assay: Efflux ratio in BCRP transfected MDCKII canine P-gp knockout cells; type: in vitro ADME; conditions: Papp(B−A)/Papp(A−B), read-out: Efflux ratio MDCKII-hBCRP knock-in,canine pg-P KO
# T2 construct: expressed in transfected cells; host or cells: MDCKII (canine kidney) cells, canine P-gp knockout, transfected with BCRP
# T2 sequence (Q9UNQ0 1-655): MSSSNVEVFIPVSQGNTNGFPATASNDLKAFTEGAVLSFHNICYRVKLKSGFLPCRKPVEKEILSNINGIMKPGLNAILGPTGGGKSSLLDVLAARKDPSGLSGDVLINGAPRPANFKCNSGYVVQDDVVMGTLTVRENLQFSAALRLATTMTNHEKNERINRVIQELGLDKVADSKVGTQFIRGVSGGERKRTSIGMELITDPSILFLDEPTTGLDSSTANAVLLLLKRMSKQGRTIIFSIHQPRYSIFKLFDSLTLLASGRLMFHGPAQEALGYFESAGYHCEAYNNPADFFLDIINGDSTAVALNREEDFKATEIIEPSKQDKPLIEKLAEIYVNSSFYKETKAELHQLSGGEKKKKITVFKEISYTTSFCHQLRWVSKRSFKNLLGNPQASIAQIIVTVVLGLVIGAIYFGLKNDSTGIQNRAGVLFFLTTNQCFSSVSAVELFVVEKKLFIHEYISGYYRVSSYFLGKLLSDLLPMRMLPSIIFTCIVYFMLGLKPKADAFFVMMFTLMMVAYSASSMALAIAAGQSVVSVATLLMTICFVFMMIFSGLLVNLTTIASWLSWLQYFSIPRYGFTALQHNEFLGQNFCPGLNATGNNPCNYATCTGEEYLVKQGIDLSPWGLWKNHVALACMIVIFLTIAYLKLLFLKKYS
# In short: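 Test article at 1 μM final (1% organic) in A→B and B→A directions across MDCKII P-gp knockout monolayers expressing BCRP, 2 h at 37° C., triplicate; lucifer yellow checked monolayer integrity. Concentrations by LC-MS/MS against labetalol internal standard; efflux ratio = Papp(B−A)/Papp(A−B).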
# T1 sequence (P08183 whole entry): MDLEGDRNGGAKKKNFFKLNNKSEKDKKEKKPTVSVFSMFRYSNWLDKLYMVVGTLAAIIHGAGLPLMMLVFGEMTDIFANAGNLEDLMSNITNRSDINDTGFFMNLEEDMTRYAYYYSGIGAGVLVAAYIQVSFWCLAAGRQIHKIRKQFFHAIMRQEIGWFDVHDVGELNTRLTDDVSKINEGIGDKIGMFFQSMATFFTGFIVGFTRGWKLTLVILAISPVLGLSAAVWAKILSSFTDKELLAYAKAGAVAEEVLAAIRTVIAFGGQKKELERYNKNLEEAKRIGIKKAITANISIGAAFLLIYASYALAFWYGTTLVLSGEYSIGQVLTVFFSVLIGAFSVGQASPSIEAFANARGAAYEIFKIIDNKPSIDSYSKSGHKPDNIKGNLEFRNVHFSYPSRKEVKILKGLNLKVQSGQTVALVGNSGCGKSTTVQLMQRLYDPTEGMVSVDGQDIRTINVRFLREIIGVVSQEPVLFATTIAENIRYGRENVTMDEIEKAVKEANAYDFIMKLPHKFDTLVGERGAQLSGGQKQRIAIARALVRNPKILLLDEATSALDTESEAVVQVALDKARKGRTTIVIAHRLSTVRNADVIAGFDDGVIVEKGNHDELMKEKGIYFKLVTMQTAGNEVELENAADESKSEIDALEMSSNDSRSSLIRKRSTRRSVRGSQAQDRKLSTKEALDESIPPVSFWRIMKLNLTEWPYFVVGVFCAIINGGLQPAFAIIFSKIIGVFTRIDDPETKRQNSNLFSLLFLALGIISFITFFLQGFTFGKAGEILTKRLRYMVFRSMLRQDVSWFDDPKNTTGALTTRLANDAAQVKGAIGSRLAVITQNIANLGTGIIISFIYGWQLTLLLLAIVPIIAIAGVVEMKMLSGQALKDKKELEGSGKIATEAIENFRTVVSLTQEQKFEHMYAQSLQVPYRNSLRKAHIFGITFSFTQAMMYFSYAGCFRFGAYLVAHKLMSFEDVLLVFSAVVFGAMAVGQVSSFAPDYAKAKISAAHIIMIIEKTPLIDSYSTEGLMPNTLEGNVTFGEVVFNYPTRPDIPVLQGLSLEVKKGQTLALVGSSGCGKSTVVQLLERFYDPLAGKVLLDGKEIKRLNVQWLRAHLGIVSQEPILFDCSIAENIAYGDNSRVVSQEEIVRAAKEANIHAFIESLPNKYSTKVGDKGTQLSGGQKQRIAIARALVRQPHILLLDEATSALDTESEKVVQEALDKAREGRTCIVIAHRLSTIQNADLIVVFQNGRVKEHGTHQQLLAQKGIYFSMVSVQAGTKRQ
Compound,"efflux ratio at 2 h, 1 μM [1]","efflux ratio at 2 h, 1 μM [2]"
"CSc1ccc(Nc2c3c(cc(=O)n2C)CCN(OCCO)C3=O)c(F)c1 [Example 6, 8-((2-fluoro-4-(methylthio)phenyl)amino)-2-(2-hydroxyethoxy)-7-methyl-3,4-dihydro-2,7-naphthyridine-1,6(2H,7H)-dione]",3.4,5.5
"Cn1c(Nc2ccc(Br)cc2F)c2c(cc1=O)CCN(OCCO)C2=O [Example 7, 8-((4-bromo-2-fluorophenyl)amino)-2-(2-hydroxyethoxy)-7-methyl-3,4-dihydro-2,7-naphthyridine-1,6(2H,7H)-dione]",5.4,9.6
"Cn1c(Nc2ccc(I)cc2F)c2c(cc1=O)CCN(OCCO)C2=O [Example 8, 8-((2-fluoro-4-iodophenol)amino)-2-(2-hydroxyethoxy)-7-methyl-3,4-dihydro-2,7-naphthyridine-1,6(2H,7H)-dione]",7.1,3.4
"CCc1ccc(Nc2c3c(cc(=O)n2C)CCN(OCCO)C3=O)c(F)c1 [Example 14, 8-((4-ethyl-2-fluorophenyl)amino)-2-(2-hydroxyethoxy)-7-methyl-3,4-dihydro-2,7-naphthyridine-1,6(2H,7H)-dione]",2.7,3.4
"Cn1c(Nc2ccc(OC(F)F)cc2F)c2c(cc1=O)CCN(OCCO)C2=O [Example 22, 8-((4-(difluoromethoxy)-2-fluorophenyl)amino)-2-(2-hydroxyethoxy)-7-methyl-3,4-dihydro-2,7-naphthyridine-1,6(2H,7H)-dione]",6.2,9
"Cc1c2c(c(Nc3ccc(Br)cc3F)n(C)c1=O)C(=O)N(OCCO)CC2 [Example 36, 8-((4-bromo-2-fluorophenyl)amino)-2-(2-hydroxyethoxy)-5,7-dimethyl-3,4-dihydro-2,7-naphthyridine-1,6(2H,7H)-dione]",2.9,3.5
